“And” between values parts separate entries of the source, which are not always exact repeats. Identical values can stand only once. Toxic doses and inconclusive results are not listed.
System: P388 leukemia ip, CD2F1 mice, survival T/C
Experiment: NCI In Vivo Anticancer Drug Screen. Data for tumor model P388 Leukemia (intraperitoneal) in CD2F1 (CDF1) mice
Conditions: endpoint: median survival time, higher = longer survival
Outline: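 Mice carrying the transplanted tumor received test compound or vehicle. Survival was recorded in each group, and the value is the treated-group measurement divided by that of the vehicle-treated control group.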

[1] = dose: 60.0 mg/kg/injection, schedule: Q01DX005 (ip), vehicle: saline with Tween-80
[2] = dose: 120.0 mg/kg/injection, schedule: Q01DX005 (ip), vehicle: saline with Tween-80
[3] = dose: 240.0 mg/kg/injection, schedule: Q01DX005 (ip), vehicle: saline with Tween-80
[4] = dose: 50.0 mg/kg/injection, schedule: Q01DX009 (ip), vehicle: saline with Tween-80
[5] = dose: 100.0 mg/kg/injection, schedule: Q01DX009 (ip), vehicle: saline with Tween-80
[6] = dose: 200.0 mg/kg/injection, schedule: Q01DX009 (ip), vehicle: saline with Tween-80

## COc1ccccc1C(Nc1nncs1)Nc1nncs1
[1]
  T/C: 106 % of control
[2]
  T/C: 97 % of control

## CCCCN(CCCC)C(=N)c1ccnc2ccccc12
dose: 6.25 mg/kg/injection, schedule: Q01DX005 (ip), vehicle: saline
  T/C: 95 % of control
dose: 12.5 mg/kg/injection, schedule: Q01DX005 (ip), vehicle: saline
  T/C: 97 % of control
dose: 25.0 mg/kg/injection, schedule: Q01DX005 (ip), vehicle: saline
  T/C: 97 % of control

## N#CC1CCCC2OCC(c3ccccc3)N12 (centres undefined)
dose: 60.0 mg/kg/injection, schedule: Q01DX005 (ip), vehicle: Klucel (hydroxypropylcellulose) (HPC)
  T/C: 119 % of control
dose: 120.0 mg/kg/injection, schedule: Q01DX005 (ip), vehicle: Klucel (hydroxypropylcellulose) (HPC)
  T/C: 119 % of control
dose: 240.0 mg/kg/injection, schedule: Q01DX005 (ip), vehicle: Klucel (hydroxypropylcellulose) (HPC)
  T/C: 117 % of control

## N#CC(Cc1ccc(CC(C#N)(c2ccccc2)c2ccccn2)cc1)(c1ccccc1)c1ccccn1 (centres undefined)
[1]
  T/C: 100 % of control
[2]
  T/C: 91 % of control
[3]
  T/C: 86 % of control

## CCOC(=O)c1ccc(NCCC(C)=O)cc1
[4]
  T/C: 91 % of control
[5]
  T/C: 86 % of control
[6]
  T/C: 91 % of control
dose: 400.0 mg/kg/injection, schedule: Q01DX009 (ip), vehicle: saline with Tween-80
  T/C: 95 % of control

## CC(=O)NS(=O)(=O)c1ccc(N=NC2C(=O)N(C(=O)c3ccccc3)N=C2C)cc1 (centres undefined)
dose: 50.0 mg/kg/injection, schedule: Q01DX001 (ip), vehicle: Klucel (hydroxypropylcellulose) (HPC)
  T/C: 93 % of control
dose: 100.0 mg/kg/injection, schedule: Q01DX001 (ip), vehicle: Klucel (hydroxypropylcellulose) (HPC)
  T/C: 95 % of control
dose: 200.0 mg/kg/injection, schedule: Q01DX001 (ip), vehicle: Klucel (hydroxypropylcellulose) (HPC)
  T/C: 93 % of control

## CCOC(=O)/N=c1/nc2ccn(C)c2c(NC(=O)OCC)s1
dose: 100.0 mg/kg/injection, schedule: Q04DX003 (ip), vehicle: saline with Tween-80
  T/C: 99 % of control
dose: 200.0 mg/kg/injection, schedule: Q04DX003 (ip), vehicle: saline with Tween-80
  T/C: 96 % of control
dose: 400.0 mg/kg/injection, schedule: Q04DX003 (ip), vehicle: saline with Tween-80
  T/C: 96 % of control

## COC(=O)C1CC2C(=O)N(C)C(Br)C(Br)C12 (centres undefined)
dose: 100.0 mg/kg/injection, schedule: Q04DX002 (ip), vehicle: saline
  T/C: 101 % of control
dose: 200.0 mg/kg/injection, schedule: Q04DX002 (ip), vehicle: saline
  T/C: 95 % of control

## NC(CCCCNC(=S)S)C(=O)O.[Zn+2] (centres undefined)
dose: 50.0 mg/kg/injection, schedule: Q01DX005 (ip), vehicle: Klucel (hydroxypropylcellulose) (HPC)
  T/C: 107 % of control
dose: 100.0 mg/kg/injection, schedule: Q01DX005 (ip), vehicle: Klucel (hydroxypropylcellulose) (HPC)
  T/C: 107 % of control
dose: 200.0 mg/kg/injection, schedule: Q01DX005 (ip), vehicle: Klucel (hydroxypropylcellulose) (HPC)
  T/C: 107 % of control

## C1CC[C@H]2OCN[C@@H]2C1
dose: 200.0 mg/kg/injection, schedule: Q04DX002 (ip), vehicle: Klucel (hydroxypropylcellulose) (HPC)
  T/C: 118 % of control
dose: 400.0 mg/kg/injection, schedule: Q04DX002 (ip), vehicle: Klucel (hydroxypropylcellulose) (HPC)
  T/C: 115 % of control

## COC(=O)c1cc2c(oc1=O)-c1ccccc1N(C=O)C2
[1]
  T/C: 86 % of control
[2]
  T/C: 88 % of control
[3]
  T/C: 98 % of control

## c1cnc2ncncc2n1
[4]
  T/C: 104 % of control and 111 % of control
[5]
  T/C: 120 % of control
[6]
  T/C: 150 % of control

## O=C1Nc2ccccc2C1(N1CCCCC1)N1CCCCC1
dose: 12.5 mg/kg/injection, schedule: Q01DX009 (ip), vehicle: saline
  T/C: 99 % of control
dose: 25.0 mg/kg/injection, schedule: Q01DX009 (ip), vehicle: saline
  T/C: 90 % of control
[4]
  T/C: 101 % of control
dose: 50.0 mg/kg/injection, schedule: Q01DX009 (ip), vehicle: saline
  T/C: 92 % of control
[6]
  T/C: 86 % of control

Source: PubChem BioAssay AID330 (DTP/NCI, 2004)
